{"source": "patent US6923993B2", "about": "“Process of isolating extract from the Euphorbia obesa plant and methods for using the same” (priority 2001, dated 2005)", "origin": "cited, not measured here", "key": {"[1]": {"system": "HL-60 human promyelocytic leukemia cells", "details": "in vitro"}, "myelocytic leukemia": {"system": "myelocytic leukemia", "details": "intravenous 1 mg; patients refractory to cytosine arabinoside, retinoic acid and other antileukemic drugs"}, "[2]": {"details": "doses of 0.5 to 1 mg"}, "skin of mice": {"system": "skin of mice", "details": "topically applied"}, "[3]": {"system": "white blood cell (WBC) count", "details": "intravenous; patients with low WBC after cytotoxic chemotherapy"}}}
{"smiles": "CCCCCCCCCCCCCC(=O)O[C@@H]1[C@@H](C)[C@@]2(O)[C@@H](C=C(CO)C[C@]3(O)C(=O)C(C)=C[C@@H]23)[C@H]2C(C)(C)[C@]12OC(C)=O", "note": "[TPA, 12-O-tetradecanoyl-13-phorbol acetate]", "values": [{"measurement": "differentiation and DNA synthesis of HL-60 cells", "setting": "[1]", "value": "stimulate differentiation and inhibit DNA synthesis"}, {"measurement": "activity in myelocytic leukemia patients", "setting": "myelocytic leukemia", "value": "pharmacological activity"}, {"measurement": "toxicity in vivo", "setting": "[2]", "value": "toxic effects"}, {"measurement": "effect on mouse skin", "setting": "skin of mice", "value": "tumor promoter"}, {"measurement": "WBC count and neutrophils in the blood", "setting": "[3]", "value": "increase in WBC count and neutrophilia"}]}
